Measured values published in paper PMC11475570, “Impact of Optimized Ku–DNA Binding Inhibitors on the Cellular and In Vivo DNA Damage Response” (Cancers, 2024).

Columns and labels:
MDA-MB-436 [1] = assay: Bleomycin-sensitization activity, CCK-8; type: cell-based, Human; conditions: BRCA1 mutant MDA-MB-436
Procedure: (§1) Cell metabolism/viability was assessed using a mitochondrial metabolism assay (CCK-8) kit (Cell Counting Kit-8, Cat: CK04, Dojindo Laboratories, Rockville, MD, USA) as previously described. Briefly, cells were seeded at a density of 3 × 10^3 cells per well in 96-well plates and allowed to adhere and stretch for 18–24 h prior to treatment. Cells were pre-treated with Ku-DBi for 24 h before bleomycin treatments. Subsequently, cells were incubated for an additional 48 h at 37 °C after which CCK-8 assay was performed. The absorbance of the formed formazan product in each well was measured at 450 nm and compared to vehicle-treated controls to determine percent cell viability. The results represent the average and SEM of triplicate determinations.

MDA-MB-468 = assay: Bleomycin-sensitization activity, CCK-8; type: cell-based, Human; conditions: BRCA1 wild-type MDA-MB-468
Procedure: as §1

H460 = assay: CCK-8 cell viability, single agent; type: cell-based, Human; conditions: for IC50: H460, CCK-8, 72 h, mean ± SD
Procedure: as §1

H23 = assay: CCK-8 cell viability, single agent; type: cell-based, Human; conditions: Homo sapiens
Procedure: as §1

A549 = assay: CCK-8 cell viability, single agent; type: cell-based, Human
Procedure: as §1

MDA-468 = assay: CCK-8 cell viability, single agent; type: cell-based, Human; conditions: Homo sapiens
Procedure: as §1

H1299 = assay: CCK-8 cell viability, single agent; type: cell-based, Human
Procedure: as §1

MDA-MB-436 [2] = assay: Doxorubicin combination, CCK-8; type: cell-based, Human; conditions: BRCA1 mutant MDA-MB-436, 20 µM 3392 pre-treatment 3 h, doxorubicin 72 h
Procedure: Supplementary Figure S5. Decreased sensitivity to Doxorubicin mediated by Ku-DBi in MDA-436 cells. […] (B) Pre-treatment with vehicle or 20 µM 3392 and media removed after 3 h, prior 72 h doxorubicin treatment after which cell viability was determined by CCK-8. Data are presented as the mean and SEM of triplicate determinations. […]

Ku 70/80 = target: T1, Ku 70/80 (Homo sapiens, UniProt P12956+P13010); assay: EMSA Ku–DNA binding inhibition; conditions: 32P-labeled 30-bp duplex DNA, purified Ku 70/80, mean and SD of triplicate
T1 construct: made in house; host or cells: baculovirus-infected Sf9 cells
Procedure: The inhibitory activity of Ku-DBis on Ku-DNA binding was evaluated in vitro using Electrophoretic mobility shift assays (EMSA) with a [^32P]-labeled 30-bp duplex DNA and purified Ku 70/80. Kinase assays were performed to measure the DNA-dependent transfer of [^32P] from γ-[^32P] ATP to a synthetic p53-based peptide substrate, both as previously described. Both EMSA and DNA-PK inhibitor titration assays were performed in triplicate. Data were fit to standard binding curves using GraphPad Prism to determine IC50 values.

T1 sequence (P12956 whole entry): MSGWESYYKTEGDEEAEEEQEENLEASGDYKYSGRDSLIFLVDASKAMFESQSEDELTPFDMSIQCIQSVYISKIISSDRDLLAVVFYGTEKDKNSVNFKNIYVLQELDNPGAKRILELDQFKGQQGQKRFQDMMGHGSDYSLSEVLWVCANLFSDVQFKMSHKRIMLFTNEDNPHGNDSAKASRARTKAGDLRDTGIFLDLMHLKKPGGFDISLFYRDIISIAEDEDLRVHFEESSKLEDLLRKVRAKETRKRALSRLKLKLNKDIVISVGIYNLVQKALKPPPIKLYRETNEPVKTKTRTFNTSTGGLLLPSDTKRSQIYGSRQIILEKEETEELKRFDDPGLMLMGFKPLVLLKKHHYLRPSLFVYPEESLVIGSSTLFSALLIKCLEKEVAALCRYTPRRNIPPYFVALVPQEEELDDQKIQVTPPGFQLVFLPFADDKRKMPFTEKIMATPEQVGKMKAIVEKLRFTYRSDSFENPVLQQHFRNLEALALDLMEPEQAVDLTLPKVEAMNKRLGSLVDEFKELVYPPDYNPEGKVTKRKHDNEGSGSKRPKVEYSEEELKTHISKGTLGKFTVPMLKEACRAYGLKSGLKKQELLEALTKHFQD
T1 sequence (P13010 whole entry): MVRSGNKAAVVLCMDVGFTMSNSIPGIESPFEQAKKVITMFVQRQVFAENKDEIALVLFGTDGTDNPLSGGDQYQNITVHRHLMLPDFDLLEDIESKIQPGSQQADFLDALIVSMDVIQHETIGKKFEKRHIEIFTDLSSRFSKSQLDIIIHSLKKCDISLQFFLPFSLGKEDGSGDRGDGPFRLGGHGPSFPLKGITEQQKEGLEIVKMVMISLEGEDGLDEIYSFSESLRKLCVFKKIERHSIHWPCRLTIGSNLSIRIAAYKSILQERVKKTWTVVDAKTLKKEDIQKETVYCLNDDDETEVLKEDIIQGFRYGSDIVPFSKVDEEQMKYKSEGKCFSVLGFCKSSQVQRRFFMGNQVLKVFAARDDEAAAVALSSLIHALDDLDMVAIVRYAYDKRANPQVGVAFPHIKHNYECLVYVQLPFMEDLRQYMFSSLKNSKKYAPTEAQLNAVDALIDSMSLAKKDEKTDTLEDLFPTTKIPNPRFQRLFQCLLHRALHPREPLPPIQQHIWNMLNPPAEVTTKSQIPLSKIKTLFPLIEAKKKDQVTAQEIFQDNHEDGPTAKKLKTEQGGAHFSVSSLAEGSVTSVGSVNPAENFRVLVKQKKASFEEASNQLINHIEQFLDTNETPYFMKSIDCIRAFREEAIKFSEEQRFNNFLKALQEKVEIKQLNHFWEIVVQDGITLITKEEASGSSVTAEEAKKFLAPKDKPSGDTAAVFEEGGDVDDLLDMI

IC50 (H460): 7.7 ± 0.6 µM
IC50 (H460; Homo sapiens, NCI-H460, 72 h): ~8 µM
IC50 (A549; Homo sapiens, A549, CCK-8, 72 h, mean ± SD): > 50 µM
IC50 (H1299; Homo sapiens, NCI-H1299, H1299, CCK-8, 72 h, mean ± SD): > 50 µM
IC50 (Ku 70/80): 4.15 ± 1.07 µM
SMILES: COc1ccc(-c2ccc(/C=C3\C(=O)N(c4cccc(C(=O)O)c4)c4ccccc43)o2)cc1C(=O)Nc1cccc(OC(F)(F)F)c1 [GL-3392]
Change in sensitivity to bleomycin (MDA-MB-436 [1]): decrease in sensitivity to bleomycin
Change in sensitivity to bleomycin (MDA-MB-468): increase in sensitivity
viability at 25 µM (H460; Homo sapiens, NCI-H460, H460, 25 µM): 12.3 ± 0.6%
IC50 (H23; NCI-H23, 72 h, H23, CCK-8, 72 h, mean ± SD): ~8 µM
viability at 25 µM (H23; NCI-H23, H23, 25 µM): 12.7 ± 0.7%
Cell viability at the highest concentrations assessed (A549; A549): ~50%
viability at 25 µM (A549; Homo sapiens, A549, 25 µM): 46.2 ± 3.8%
viability at 25 µM (MDA-468; MDA-468, 25 µM): 29.4 ± 1.3%
IC50 (MDA-468; MDA-468, CCK-8, 72 h, mean ± SD): 10.4 ± 1.5 µM
Cell viability at the highest concentrations assessed (H1299; H1299): ~ 90%
viability at 25 µM (H1299; Homo sapiens, NCI-H1299, H1299, 25 µM): 89.9 ± 10.1%
Change in doxorubicin sensitivity (MDA-MB-436 [2]): decrease in Dox sensitivity
